Experimental data: PubChem BioAssay (NCI)
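Five concentrations, 48 hours, 96-well plates. Definition used: TGI = concentration required for complete inhibition of growth.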

Legend:
Experiment in all cases: NCI-60 cell line screen, 48 h
786-0 renal = system: 786-0 renal
A498 renal = system: A498 renal
A549 NSCLC = system: A549 NSCLC
ACHN renal = system: ACHN renal
BT-549 breast = system: BT-549 breast
CAKI-1 renal = system: CAKI-1 renal
CCRF-CEM leukemia = system: CCRF-CEM leukemia
COLO 205 colon = system: COLO 205 colon
DU-145 prostate = system: DU-145 prostate
EKVX NSCLC = system: EKVX NSCLC
HCC-2998 colon = system: HCC-2998 colon
HCT-116 colon = system: HCT-116 colon
HCT-15 colon = system: HCT-15 colon
HL-60(TB) leukemia = system: HL-60(TB) leukemia
HOP-62 NSCLC = system: HOP-62 NSCLC
HOP-92 NSCLC = system: HOP-92 NSCLC
HS 578T breast = system: HS 578T breast
HT29 colon = system: HT29 colon
IGROV1 ovarian = system: IGROV1 ovarian
K-562 leukemia = system: K-562 leukemia
KM12 colon = system: KM12 colon
LOX IMVI melanoma = system: LOX IMVI melanoma
M14 melanoma = system: M14 melanoma
MALME-3M melanoma = system: MALME-3M melanoma
MCF7 breast = system: MCF7 breast
MDA-MB-231 breast = system: MDA-MB-231 breast
MDA-MB-435 = system: MDA-MB-435
MDA-N = system: MDA-N
MOLT-4 leukemia = system: MOLT-4 leukemia
NCI-H226 lung = system: NCI-H226 lung
NCI-H23 lung = system: NCI-H23 lung
NCI-H460 lung = system: NCI-H460 lung
NCI-H522 lung = system: NCI-H522 lung
NCI/ADR-RES ovarian = system: NCI/ADR-RES ovarian
OVCAR-3 ovarian = system: OVCAR-3 ovarian
OVCAR-4 ovarian = system: OVCAR-4 ovarian
OVCAR-5 ovarian = system: OVCAR-5 ovarian
OVCAR-8 ovarian = system: OVCAR-8 ovarian
PC-3 prostate = system: PC-3 prostate
RPMI-8226 leukemia = system: RPMI-8226 leukemia
RXF 393 renal = system: RXF 393 renal
SF-268 CNS = system: SF-268 CNS
SF-295 CNS = system: SF-295 CNS
SF-539 CNS = system: SF-539 CNS
SK-MEL-2 melanoma = system: SK-MEL-2 melanoma
SK-MEL-28 melanoma = system: SK-MEL-28 melanoma
SK-MEL-5 melanoma = system: SK-MEL-5 melanoma
SK-OV-3 ovarian = system: SK-OV-3 ovarian
SN12C renal = system: SN12C renal
SNB-19 CNS = system: SNB-19 CNS
SNB-75 CNS = system: SNB-75 CNS
SR leukemia = system: SR leukemia
SW-620 colon = system: SW-620 colon
T-47D breast = system: T-47D breast
TK-10 renal = system: TK-10 renal
U251 CNS = system: U251 CNS
UACC-257 melanoma = system: UACC-257 melanoma
UACC-62 melanoma = system: UACC-62 melanoma
UO-31 renal = system: UO-31 renal

SMILES: CC(C)C(OC(=O)c1ccc(NCC2=CC(=O)C=CC2=O)cc1)C(C)C
- TGI (786-0 renal): 22.8 µM
- TGI (A498 renal): 31.9 µM
- TGI (A549 NSCLC): > 73.1 µM
- TGI (ACHN renal): 21.2 µM
- TGI (BT-549 breast): 15.1 µM
- TGI (CAKI-1 renal): 3.02 µM
- TGI (CCRF-CEM leukemia): 2.36 µM
- TGI (COLO 205 colon): 9.84 µM
- TGI (DU-145 prostate): 65.5 µM
- TGI (EKVX NSCLC): 29.1 µM
- TGI (HCC-2998 colon): 27.9 µM
- TGI (HCT-116 colon): 24.6 µM
- TGI (HCT-15 colon): 10.4 µM
- TGI (HL-60(TB) leukemia): 3.96 µM
- TGI (HOP-62 NSCLC): 48.3 µM
- TGI (HOP-92 NSCLC): 4.67 µM
- TGI (HS 578T breast): 16.7 µM
- TGI (HT29 colon): 26.3 µM
- TGI (IGROV1 ovarian): 5.14 µM
- TGI (K-562 leukemia): 12.6 µM
- TGI (KM12 colon): 30.5 µM
- TGI (LOX IMVI melanoma): 18 µM
- TGI (M14 melanoma): 19.7 µM
- TGI (MALME-3M melanoma): 25.1 µM
- TGI (MCF7 breast): 22.5 µM
- TGI (MDA-MB-231 breast): 31.8 µM
- TGI (MDA-MB-435): 17.9 µM
- TGI (MDA-N): 21.5 µM
- TGI (MOLT-4 leukemia): 7.12 µM
- TGI (NCI-H226 lung): 11.7 µM
- TGI (NCI-H23 lung): 20.2 µM
- TGI (NCI-H460 lung): 32.6 µM
- TGI (NCI-H522 lung): 2.85 µM
- TGI (NCI/ADR-RES ovarian): 19.8 µM
- TGI (OVCAR-3 ovarian): 23.4 µM
- TGI (OVCAR-4 ovarian): 11.4 µM
- TGI (OVCAR-5 ovarian): 36.4 µM
- TGI (OVCAR-8 ovarian): 12.9 µM
- TGI (PC-3 prostate): 29.9 µM
- TGI (RPMI-8226 leukemia): > 28.2 µM
- TGI (RXF 393 renal): 3.67 µM
- TGI (SF-268 CNS): 31.9 µM
- TGI (SF-295 CNS): 29.4 µM
- TGI (SF-539 CNS): 4.1 µM
- TGI (SK-MEL-2 melanoma): 27.3 µM
- TGI (SK-MEL-28 melanoma): 15 µM
- TGI (SK-MEL-5 melanoma): 24.5 µM
- TGI (SK-OV-3 ovarian): 42.1 µM
- TGI (SN12C renal): 35.8 µM
- TGI (SNB-19 CNS): 53.5 µM
- TGI (SNB-75 CNS): 17.2 µM
- TGI (SR leukemia): 11.9 µM
- TGI (SW-620 colon): 27.4 µM
- TGI (T-47D breast): 7.45 µM
- TGI (TK-10 renal): 14.4 µM
- TGI (U251 CNS): 13.5 µM
- TGI (UACC-257 melanoma): 25.9 µM
- TGI (UACC-62 melanoma): 20.3 µM
- TGI (UO-31 renal): 4.74 µM

SMILES: CC1=C(O)c2ccccc2C(=O)C1=O
- TGI (786-0 renal): > 100 µM
- TGI (A498 renal): > 100 µM
- TGI (A549 NSCLC): > 100 µM
- TGI (ACHN renal): > 100 µM
- TGI (BT-549 breast): 99.3 µM
- TGI (CAKI-1 renal): > 100 µM
- TGI (CCRF-CEM leukemia): > 100 µM
- TGI (COLO 205 colon): > 100 µM
- TGI (DU-145 prostate): > 100 µM
- TGI (EKVX NSCLC): > 100 µM
- TGI (HCC-2998 colon): > 100 µM
- TGI (HCT-116 colon): > 100 µM
- TGI (HCT-15 colon): > 100 µM
- TGI (HL-60(TB) leukemia): > 100 µM
- TGI (HOP-62 NSCLC): > 100 µM
- TGI (HOP-92 NSCLC): > 100 µM
- TGI (HS 578T breast): > 100 µM
- TGI (HT29 colon): > 100 µM
- TGI (IGROV1 ovarian): > 100 µM
- TGI (K-562 leukemia): > 100 µM
- TGI (KM12 colon): > 100 µM
- TGI (LOX IMVI melanoma): > 100 µM
- TGI (M14 melanoma): > 100 µM
- TGI (MALME-3M melanoma): > 100 µM
- TGI (MCF7 breast): > 100 µM
- TGI (MDA-MB-231 breast): > 100 µM
- TGI (MDA-MB-435): > 100 µM
- TGI (MDA-N): > 100 µM
- TGI (MOLT-4 leukemia): > 100 µM
- TGI (NCI-H226 lung): > 100 µM
- TGI (NCI-H23 lung): > 100 µM
- TGI (NCI-H460 lung): > 100 µM
- TGI (NCI-H522 lung): > 100 µM
- TGI (NCI/ADR-RES ovarian): > 100 µM
- TGI (OVCAR-3 ovarian): > 100 µM
- TGI (OVCAR-4 ovarian): > 100 µM
- TGI (OVCAR-5 ovarian): > 100 µM
- TGI (OVCAR-8 ovarian): > 100 µM
- TGI (PC-3 prostate): > 100 µM
- TGI (RPMI-8226 leukemia): > 100 µM
- TGI (RXF 393 renal): > 100 µM
- TGI (SF-268 CNS): > 100 µM
- TGI (SF-295 CNS): > 100 µM
- TGI (SF-539 CNS): > 100 µM
- TGI (SK-MEL-2 melanoma): > 100 µM
- TGI (SK-MEL-28 melanoma): > 100 µM
- TGI (SK-MEL-5 melanoma): > 65.1 µM
- TGI (SK-OV-3 ovarian): > 100 µM
- TGI (SN12C renal): > 100 µM
- TGI (SNB-19 CNS): > 100 µM
- TGI (SNB-75 CNS): > 100 µM
- TGI (SR leukemia): > 100 µM
- TGI (SW-620 colon): > 100 µM
- TGI (T-47D breast): > 100 µM
- TGI (TK-10 renal): > 100 µM
- TGI (U251 CNS): > 90.9 µM
- TGI (UACC-257 melanoma): > 100 µM
- TGI (UACC-62 melanoma): > 100 µM
- TGI (UO-31 renal): > 65.3 µM
